Data published in publication PMC12867150, “A fungi-derived cyclic peptide enhances Th9-mediated antitumor immunity by targeting ZAP70 and SREBP1” (The Journal of Clinical Investigation, 2025).
Values joined by “and” are separate entries in the source; they are usually repeats but may differ in a detail not shown here. Identical values can stand only once.

Legend:
Th9 cells = experiment: Seahorse extracellular acidification rate, glycolysis stress test (Figure 4B-D); assay type: cell-based, mouse; set-up: basal glycolysis of seahorse extracellular flux: unit not given here
Experimental: After stimulation, cells were washed, resuspended in Seahorse XF assay medium (Agilent Technologies; pH 7.40–7.45, catalog 103576-100) and seeded at 5 × 10^5 cells per well in Seahorse XF96 microplates. Plates were centrifuged at 400 × g for 5 minutes to promote adherence and monolayer formation, and all conditions were tested in quadruplicate.
Glycolytic activity was measured on a Seahorse XFe96 Extracellular Flux Analyzer (Agilent Technologies) using the XFe96 Glycolysis Stress Test kit (Agilent Technologies, catalog 103020-100) per the manufacturer’s instructions. Sequential injections of glucose (10 mM), oligomycin (1 μM), and 2-deoxyglucose (2-DG; 50 mM) were administered to determine ECAR as a proxy for glycolytic function. A glycolytic index was calculated from ECAR values obtained before and after each injection.

[1] = tested on: EpA-binding proteins in Th9 cell lysates; experiment: EpA-biotin pulldown and LC-MS/MS (Figure 5A, S7A-B); set-up: species or system mouse; conditions: result in words
Experimental: Cell lysates from Th9 cells were incubated overnight at 4 °C with EpA-biotin or biotin alone (control). Streptavidin-conjugated magnetic beads were added to capture biotinylated compounds and their interacting proteins. After washing, the bead-bound proteins were resolved by SDS-PAGE and visualized by silver staining. Distinct protein bands were excised, subjected to in-gel enzymatic digestion, and analyzed via liquid chromatography–tandem mass spectrometry (LC-MS/MS) to identify putative EpA-binding proteins.

[2] = Body weight after ACT (S1A); assay type: in vivo, mouse; conditions: EpA-Th9 therapy vs control; result in words
Experimental: C57BL/6 mice were subcutaneously injected with 5 × 10^5 B16-OVA melanoma cells. Five days after tumor implantation, mice received an intravenous infusion of 2 × 10^6 in vitro–differentiated Th9 cells (cultured for 5 days), which were derived from OT-II CD45.1 donor mice, accompanied by 4 × 10^5 OVA peptide–pulsed DCs via the tail vein. To enhance T cell engraftment and facilitate lymphodepletion, a single intraperitoneal injection of cyclophosphamide (200 mg/kg, Sigma, catalog C0768) was administered 1 day prior to T cell transfer. Mice were euthanized at designated time points for the collection and analysis of spleens, tumor-draining lymph nodes, and tumor tissues.
Days after ACT Days after ACT
Figure S1. EpA enhances immune responses.
(A) Body weight of mice after ACT in PBS, control, and EpA-treated groups. (B) Serum IL-6 levels after ACT, measured by ELISA on days 5, 10, 15, and 20. (C–E) Representative flow-cytometric plots showing transferred CD45.1⁺ OT-II Th9 cells in spleens (C), tumor-draining lymph nodes (LNs) (D), and tumors (E); frequencies Figure S1 and absolute numbers of CD45.1⁺ OT-II Th9 cells in LNs are quantified in (D). (F–
I) Representative flow-cytometric plots of endogenous CD4⁺ and CD8⁺ T cells in spleens (F), LNs (G), and tumors (H); frequencies and absolute numbers of endogenous CD4⁺ (G) and CD8⁺ (I) T cells in LNs are quantified. […]

[3] = EpA 10 μM, 4 days, result in words

anteiso-C15 Leu7 surfactin [EpA]
basal and maximal ECAR (Th9 cells; [3]): significantly elevated | extracellular acidification rate (ECAR) (Th9 cells; [3]): marked increase | basal glycolysis of seahorse extracellular flux (Th9 cells; Figure 4C, individual replicates, n = 6): 3.18 and 3.13 and 4.92 and 4.79 and 3.98 and 4.85 | max glycolytic capacity of seahorse extracellular flux (Th9 cells; Figure 4D, individual replicates, n = 6, in mpH/min (unit assumed)): 34.82 and 36.26 and 48.55 and 43.93 and 34.44 and 51.9 | EpA pulldown, ZAP70 [1]: top candidate | body weight [2]: No significant differences
